Results as given in US11214540B2, “Compositions for treating neurodegenerative diseases” (COGNITION THERAPEUTICS, INC., priority 2017, dated 2022).

Experiments:
[1] = tested on: Abeta oligomer-induced membrane trafficking deficits in primary hippocampal neurons; test: Membrane Trafficking/Exocytosis (MTT) assay, Abeta oligomer effect on neurons; assay type: cell-based, rat; details: membrane trafficking; read-out: EC50 Abeta;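 further: compound potency for inhibiting the Abeta oligomer effect on exocytosis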
Summary of the method: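 Rat E18 hippocampal neurons cultured 3 weeks received compound (100 uM to 0.001 nM), then vehicle or Abeta 1-42 oligomers (3 μM total Abeta), for 1-24 h at 37 °C. MTT was added for 1 h, and formazan vesicle exocytosis was quantified by automated imaging with DAPI toxicity check. Tukey-Kramer comparisons were made with N=4.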

[2] = molecular target: potassium channel hERG (Homo sapiens (Human), UniProt Q12809); test: In vitro testing for hERG inhibition; assay type: biochemical; details: in vitro toxicity potassium channel hERG
potassium channel hERG, sequence (Q12809 whole entry): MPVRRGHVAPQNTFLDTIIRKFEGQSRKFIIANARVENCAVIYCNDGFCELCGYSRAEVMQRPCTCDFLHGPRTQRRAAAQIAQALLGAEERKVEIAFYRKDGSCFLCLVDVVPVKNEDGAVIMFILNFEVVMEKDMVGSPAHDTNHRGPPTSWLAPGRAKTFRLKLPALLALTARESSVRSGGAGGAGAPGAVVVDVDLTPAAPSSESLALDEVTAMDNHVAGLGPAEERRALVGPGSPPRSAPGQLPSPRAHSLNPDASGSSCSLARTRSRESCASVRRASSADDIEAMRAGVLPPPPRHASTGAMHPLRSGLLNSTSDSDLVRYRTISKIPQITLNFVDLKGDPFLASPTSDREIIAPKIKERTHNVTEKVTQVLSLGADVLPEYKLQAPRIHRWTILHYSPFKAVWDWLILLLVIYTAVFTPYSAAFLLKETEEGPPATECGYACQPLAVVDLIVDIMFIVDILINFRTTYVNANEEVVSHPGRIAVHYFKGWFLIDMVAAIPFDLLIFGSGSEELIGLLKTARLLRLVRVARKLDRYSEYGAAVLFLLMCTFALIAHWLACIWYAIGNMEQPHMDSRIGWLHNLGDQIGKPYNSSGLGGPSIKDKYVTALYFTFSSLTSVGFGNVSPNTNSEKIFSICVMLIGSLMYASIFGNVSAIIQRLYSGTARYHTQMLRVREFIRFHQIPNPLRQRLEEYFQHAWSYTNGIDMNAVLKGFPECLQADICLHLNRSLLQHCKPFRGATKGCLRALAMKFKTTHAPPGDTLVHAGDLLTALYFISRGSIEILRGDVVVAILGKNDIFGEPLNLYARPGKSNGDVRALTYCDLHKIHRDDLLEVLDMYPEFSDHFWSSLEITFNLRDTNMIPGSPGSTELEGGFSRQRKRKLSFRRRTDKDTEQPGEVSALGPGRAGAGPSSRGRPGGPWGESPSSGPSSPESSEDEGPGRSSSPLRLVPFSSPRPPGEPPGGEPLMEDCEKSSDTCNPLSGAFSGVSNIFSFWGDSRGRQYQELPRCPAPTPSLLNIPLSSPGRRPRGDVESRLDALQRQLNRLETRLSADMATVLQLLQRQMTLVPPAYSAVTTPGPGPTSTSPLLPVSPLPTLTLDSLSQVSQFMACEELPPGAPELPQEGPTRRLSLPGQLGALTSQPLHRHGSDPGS
Procedure: In vitro testing for hERG inhibition was performed in a standard assay (See: Haverkamp W, Breithardt G, Carnm A J, Janse M J, Rosen M R, Antzelevitch C, Escande D, Franz M, Malik M, Moss A and Shah R. (2000) Eur Heat J 21 (15); 1216-31).

[3] = log P; assay type: physicochemical
Summary of the method: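 Ratio of un-ionized compound concentrations between octanol and water, with aqueous pH set so the un-ionized form predominates. Value given as the log of the octanol/water ratio.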

[4] = molecular target: Sigma-2 receptors on membranes from rat cerebral cortex (Rattus norvegicus (Rat), UniProt Q5U3Y7); test: Competitive Radioligand Binding Assay 1, Sigma-2 binding ([3H]DTG displacement with (+)pentazocine mask); details: sigma-2 receptor affinity; read-out: S2 Ki
Sigma-2 receptors on membranes from rat cerebral cortex, sequence (Q5U3Y7 whole entry): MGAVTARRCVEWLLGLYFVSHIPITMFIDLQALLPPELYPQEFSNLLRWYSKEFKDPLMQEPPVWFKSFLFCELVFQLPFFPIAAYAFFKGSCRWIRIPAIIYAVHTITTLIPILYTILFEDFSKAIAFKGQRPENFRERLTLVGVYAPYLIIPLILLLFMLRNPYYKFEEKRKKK
Procedure: Using the same protocol, some compounds for which membrane trafficking data are given in Table 1 were tested for recognition of sigma-2 receptor. Certain compounds preferentially bind to the sigma-2 receptor.
(§1) For Sigma-1 binding, various concentrations of test compounds from 100 μM to 1 nM were used to displace 8 nM [3H](+)pentazocine from endogenous receptors on Jurkat cell membranes (Ganapathy M E et al. 1991, J Pharmacol. Exp. Ther. 289:251-260). 10 μM Haloperidol was used to define non-specific binding. […] (Bowen W D, et al. 1993, Mol. Neuropharmcol 3:117-126). 10 μM Haloperidol was used to define non-specific binding. Reactions were terminated by rapid filtration through Whatman GF/C filters using a Brandel 12R cell harvester followed by two washes with ice-cold buffer. Radioactivity on the dried filter discs was measured using a liquid scintillation analyzer (Tri-Carb 2900TR; PerkinElmer Life and Analytical Sciences). The displacement curves were plotted and the Ki values of the test compounds for the receptor subtypes were determined using GraphPad Prism (GraphPad Software Inc., San Diego, Calif.). The percentage specific binding was determined by dividing the difference between total bound (disintegrations per minute) and nonspecific bound (disintegrations per minute) by the total bound (disintegrations per minute).
Affinities for Sigma-1 and Sigma-2 receptors are typically obtained from published studies using cerebral tissue homogenates with [3H](+)pentazocine to measure displacement from Sigma-1 receptors and [3H] 1,3-Di-(2-tolyl)guanidine in the presence of 300 nM (+)pentazocine to measure displacement from Sigma-2 receptors.

[5] = molecular target: Sigma-1 receptors on Jurkat cell membranes (Homo sapiens (Human), UniProt Q99720); test: Competitive Radioligand Binding Assay 1, Sigma-1 binding ([3H](+)pentazocine displacement); details: sigma-1 receptor affinity; read-out: S1 Ki
Sigma-1 receptors on Jurkat cell membranes, sequence (Q99720 whole entry): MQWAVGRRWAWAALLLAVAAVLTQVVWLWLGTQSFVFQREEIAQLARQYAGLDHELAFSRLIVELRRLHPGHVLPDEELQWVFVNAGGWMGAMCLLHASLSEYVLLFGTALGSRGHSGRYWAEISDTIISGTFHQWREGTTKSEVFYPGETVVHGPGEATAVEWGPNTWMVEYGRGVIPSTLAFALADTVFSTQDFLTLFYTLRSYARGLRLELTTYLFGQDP
Procedure: Certain compounds were tested for interaction with several receptors by blocking the binding or action of their agonists or antagonists. Some compounds were tested to see whether they interact directly with known cellular receptor or signaling proteins. Compounds can be tested for the ability to displace binding of known agonists or antagonists of a given human receptor that was overexpressed in cell lines or isolated from tissue. Compounds can also be tested for the ability to block downstream signaling induced by agonists or antagonists of a given human receptor. Compounds can be tested for action at 100 known receptors, and it is desirable that specific activity will occur at only a small subset of CNS-relevant receptors.
as §1, with “minute). […]” for “minute).”

Structure (SMILES) | EC50 [1] | IC50 [2] | log P [3] | Ki [4] | Ki [5]
CC(C)=CC(COc1ccc(F)cc1)N1CCC(O)CC1 (stereo not drawn) [Compound 18] | 250 nM | 29000 nM | 2.72 | 5.6 nM | 2.6 nM
CC(=O)N1CCN(C(C=C(C)C)CC(C)(C)c2ccc(Cl)cc2)CC1 (stereo not drawn) [Compound 75] | 250 nM | 15000 nM | 4.33 | 690 nM | 690 nM
CC(C)=CC(CC(C)(C)c1ccc(Cl)cc1)N1CCC(c2ccnc(N3CCCC3)c2)CC1 (stereo not drawn) [Compound 63] | 1500 nM | – | 7.42 | 240 nM | –
CC(C)(CCN1CCC(O)CC1)c1ccc(Cl)cc1 [Compound 8] | 250 nM | 14000 nM | 3.16 | 1.6 nM | 0.4 nM
CC(C)=CC(CC(C)(C)c1ccc(C(F)(F)F)cc1)N1CCC(OC(C)C)CC1 (stereo not drawn) [Compound 44] | 1400 nM | 9200 nM | 6.27 | 79 nM | 260 nM
COc1ccc(C(C)(C)CC(C=C(C)C)NCC2CCOCC2)cc1 (stereo not drawn) [Compound 74] | 12900 nM | – | 4.54 | 430 nM | –
CC(=O)N1CCN(C(C=C(C)C)CC(C)(C)c2ccc(C(F)(F)F)cc2)CC1 (stereo not drawn) [Compound 71] | – | 17000 nM | 4.61 | 340 nM | 62 nM
CC(C)=CC(CC(C)(C)c1ccc(C)cc1)N[C@H](C)c1ccccc1 (stereo partly drawn) [Compound 80] | 640 nM | – | 6.93 | 1300 nM | –
CC(CC(C)(C)c1ccc(C(F)(F)F)cc1)N1CCC(O)CC1 (stereo not drawn) [Compound 13] | – | 2500 nM | 3.85 | 2.9 nM | 1 nM
CC(C)=CC(COc1ccccc1)N1CCC(O)CC1 (stereo not drawn) [Compound 184] | – | 62000 nM | 2.57 | – | 220 nM
CC(C)=CC(CC(C)(C)c1ccc(C)cc1)NCC1CCCCC1 (stereo not drawn) [Compound 52] | 4800 nM | – | 6.9 | 110 nM | –
CC(C)=CC(CC(C)(C)c1ccc(Cl)cc1)N1CCC(c2cccc(S(C)(=O)=O)c2)CC1 (stereo not drawn) [Compound 46] | 4800 nM | – | 6.37 | 86 nM | –
CC(C)=CC(CC(C)(C)c1ccc(S(C)(=O)=O)cc1)N1CCC(c2ccncc2)CC1 (stereo not drawn) [Compound 51] | 20000 nM | – | 4.55 | 100 nM | –
CC(C)=CC(CC(C)(C)c1ccc(F)cc1)N1CCN(C(=O)OC(C)(C)C)CC1 (stereo not drawn) [Compound 47] | – | 14000 nM | 5.55 | 90 nM | 1910 nM
CC(C)=CC(CCc1ccc(C)cc1)N1CCC(C2CCOCC2)CC1 (stereo not drawn) [Compound 64] | – | 11000 nM | 3.52 | 268 nM | 535 nM
CC(C)=CC(CC(C)(C)c1ccc(C)cc1)NCc1ccc(C)cc1 (stereo not drawn) [Compound 54] | 3200 nM | – | 7.02 | 120 nM | –
CC(CC(C)(C)c1ccc(Cl)cc1)N1CCC(C)(O)CC1 (stereo not drawn) [Compound 22] | – | 1700 nM | 3.85 | 7 nM | 1 nM
CC(C)=CC(CC(C)(C)c1ccc(C(F)(F)F)cc1)N1CCC2(CC1)OCc1ccccc12 (stereo not drawn) [Compound 189] | – | 5700 nM | 6.89 | – | 37 nM
CC(=O)N1CCN(C(C=C(C)C)CC(C)(C)c2ccc(F)cc2)CC1 (stereo not drawn) [Compound 81] | – | 32000 nM | 3.87 | 2500 nM | 160 nM
CC(C)(CCN1CCC(C2CCOCC2)CC1)c1ccc(C(F)(F)F)cc1 [Compound 1] | – | 740 nM | 5.16 | 0.2 nM | 0.7 nM

Structure (SMILES) | EC50 [1] | IC50 [2] | log P [3] | Ki [4] | Ki [5]
CC(C)=CC(CC(C)(C)c1ccc(C)cc1)N1CCC(C(C)C)CC1 (stereo not drawn) [Compound 33] | 1920 nM | – | 7.04 | 33 nM | –
CC(C)=CC(CC(C)(C)c1ccc(Cl)cc1)N1CCC(c2ccc(S(C)(=O)=O)cc2)CC1 (stereo not drawn) [Compound 32] | 6900 nM | – | 6.37 | 32 nM | –
CC(C)=CC(COc1ccc(Cl)cc1)N1CCC(O)CC1 (stereo not drawn) [Compound 186] | – | 2300 nM | 3.18 | – | 42 nM
CC(CC(C)(C)c1ccc(F)cc1)N1CCC(O)CC1 (stereo not drawn) [Compound 25] | – | 4000 nM | 3.11 | 10 nM | 2.3 nM
CC(C)=CC(CC(C)(C)c1ccc(Cl)cc1)N1CCC(c2ccncc2)CC1 (stereo not drawn) [Compound 24] | 20000 nM | – | 6.31 | 10 nM | –
CC(C)=CC(CC(C)(C)c1ccc(Cl)cc1)N1CCC(c2ccnc(N3CCOCC3)c2)CC1 (stereo not drawn) [Compound 67] | 13000 nM | – | 6.8 | 300 nM | –
CC(C)=CC(CCc1ccc(F)cc1)N1CCC(C2CCOCC2)CC1 (stereo not drawn) [Compound 65] | – | 2300 nM | 4.13 | 270 nM | 1200 nM
CC(C)=CC(CC(C)(C)c1ccc(C)cc1)N1CCN(c2ccccc2)CC1 (stereo not drawn) [Compound 60] | 1000 nM | – | 6.91 | 210 nM | –
CC(C)=CC(CC(C)(C)c1ccc(C)cc1)N1CCC(C2CCOCC2)CC1 (stereo not drawn) [Compound 3] | 250 nM | – | 6.22 | 0.76 nM | –
COCCCC1CCN(CCC(C)(C)c2ccc(C(F)(F)F)cc2)CC1 [Compound 4] | – | 2200 nM | 5.35 | 0.8 nM | 0.5 nM
CC(C)=CC(CC(C)(C)c1ccc(C)cc1)NCC1CCOCC1 (stereo not drawn) [Compound 57] | 730 nM | – | 5.21 | 150 nM | –
CC(CC(C)(C)c1ccc(Cl)cc1)N1CCC(O)CC1 (stereo not drawn) [Compound 20] | – | 1700 nM | 3.57 | 6.1 nM | 1 nM
CC(CC(C)(C)c1ccc(Cl)cc1)N1CCC(CO)CC1 (stereo not drawn) [Compound 16] | – | 840 nM | 4.03 | 4.5 nM | 0.8 nM
COCC1CCCN1C(C=C(C)C)CC(C)(C)c1ccc(F)cc1 (stereo not drawn) [Compound 245] | > 15000 nM | 14000 nM | 5.22 | – | –
CC(C)=CC(CC(C)(C)c1ccc(C(F)(F)F)cc1)N1CCC(CCOC2CCOC2)CC1 (stereo not drawn) [Compound 182] | – | 2600 nM | 6.22 | – | 160 nM
CC(C)=CC(CC(C)(C)c1ccc(C)cc1)N1CCN(CC(C)C)CC1 (stereo not drawn) [Compound 45] | 2600 nM | – | 6.26 | 85 nM | –
CCC(C)(O)CCNC(C)CC(C)(C)c1ccc(C(F)(F)F)cc1 (stereo not drawn) [Compound 12] | – | 970 nM | 4.13 | 2.7 nM | 1 nM
CC(C)=CC(CC(C)(C)c1ccc(F)cc1)N1CCC(CCOC2CCOC2)CC1 (stereo not drawn) [Compound 179] | – | 4000 nM | 5.49 | – | 430 nM
CC(C)=CC(CC(C)(C)c1ccc(C(F)(F)F)cc1)N1CC[C@H](O)C1 (stereo partly drawn) [Compound 232] | 15000 nM | 29000 nM | 4.79 | – | –
